Consider 3 molecules from paper PMC8672713 (Chemical Science, 2021).

This experiment has as its target SARS-CoV-2 Mpro (Severe acute respiratory syndrome coronavirus 2, UniProt P0DTD1). The experiment is classed as biochemical.
`O=C(NC[C@@H]1CC2(CCC2)CN1C(=O)c1ccc(F)c(O)c1)c1cncc2ccccc12` [Z4927220858] gave an IC50 of 11.2 µM.

As to `O=C(NC[C@H](NC(=O)c1cncc2sccc12)c1ccc2ccccc2c1)c1cocn1` [Z4921678803], inhibition was half-maximal at 12.1 µM (IC50).

`Cc1cncc(C(=O)NC[C@H]2c3ccccc3CCN2C(=O)c2cccn3nnnc23)c1` [Z4921675438]: the IC50 was 10.8 µM.
